In US9944678B2, “Immunomodulators” (BRISTOL-MYERS SQUIBB COMPANY, priority 2014, dated 2018):
Starred links: 1 amine or outer side, 2 acyl side, 3 side chain; linkers in the order of their positions; H or OH if unused. Positions of bridges follow the written chain, without caps; N, C: chain ends. Non-standard residues stand in square brackets, D forms with d. Residues, ends and D or L forms follow the SMILES beside them. ξ: configuration not given here. X2 = CC[C@H]1C[C@@]1(N[*:1])C(=O)[*:2]; Bta = N[C@@H](Cc1csc2ccccc12)C(=O)O; X3 = C[C@H]1CC1(N[*:1])C(=O)[*:2]; Hyp = O=C(O)[C@@H]1C[C@@H](O)CN1; NMeNle = CCCC[C@H](NC)C(=O)O; NMeA = CN[C@@H](C)C(=O)O; ξC = NC(CS)C(=O)O

Legend:
[1] = molecular target: T1, PD-1-Ig binding to PD-L1-TVMV-His (PD-L1-His) (Homo sapiens, UniProt Q9NZQ7); experiment: PD-1/PD-L1 Homogenous Time-Resolved Fluorescence (HTRF) binding assay; settings: PD-1-Ig/PD-L1-His binding
T1 construct: hPDL1(19-239)-TVMV-His; TVMV protease cleavage site (C); made in house; host or cells: HEK293T cells
Text: The ability of the macrocyclic peptides of the present disclosure to bind to PD-L1 was investigated using a PD-1/PD-L1 Homogenous Time-Resolved Fluorescence (HTRF) binding assay.
Homogenous Time-Resolved Fluorescence (HTRF) Assays of Binding of Soluble PD-1 to Soluble PD-L1. Soluble PD-1 and soluble PD-L1 refers to proteins with carboxyl-end truncations that remove the transmembrane-spanning regions and are fused to heterologous sequences, specifically the Fc portion of the human immunoglobuling G sequence (Ig) or the hexahistidine epitope tag (His). All binding studies were performed in an HTRF assay buffer consisting of dPBS supplemented with 0.1% (w/v) bovine serum albumin and 0.05% (v/v) Tween-20. For the PD-1-Ig/PD-L1-His binding assay, inhibitors were pre-incubated with PD-L1-His (10 nM final) for 15 m in 4 μl of assay buffer, followed by addition of PD-1-Ig (20 nM final) in 1 μl of assay buffer and further incubation for 15 m. PD-L1 fusion proteins from either human, cynomologous macaques, mouse, or other species were used. HTRF detection was achieved using europium crypate-labeled anti-Ig monoclonal antibody (1 nM final) and allophycocyanin (APC) labeled anti-His monoclonal antibody (20 nM final). Antibodies were diluted in HTRF detection buffer and 5 μl was dispensed on top of binding reaction. The reaction was allowed to equilibrate for 30 minutes and signal (665 nm/620 nm ratio) was obtained using an EnVision fluorometer. Additional binding assays were established between PD-1-Ig/PD-L2-His (20 and 5 nM, respectively), CD80-His/PD-L1-Ig (100 and 10 nM, respectively) and CD80-His/CTLA4-Ig (10 and 5 nM, respectively). Binding/competition studies between biotinylated Compound No. 71 and human PD-L1-His were performed as follows. Macrocyclic peptide inhibitors were pre-incubated with PD-L1-His (10 nM final) for 60 minutes in 4 μl of assay buffer followed by addition of biotinylated Compound No. 71 (0.5 nM final) in 1 μl of assay buffer. Binding was allowed to equilibrate for 30 minutes followed by addition of europium crypated labeled Streptavidin (2.5 pM final) and APC-labeled anti-His (20 nM final) in 5 μl of HTRF buffer. The reaction was allowed to equilibrate for 30 m and signal (665 nm/620 nm ratio) was obtained using an EnVision fluorometer.
Recombinant Proteins. Carboxyl-truncated human PD-1 (amino acids 25-167) with a C-terminal human Ig epitope tag [hPD-1 (25-167)-3S-IG] and human PD-L1 (amino acids 18-239) with a C-terminal His epitope tag [hPD-L1(19-239)-tobacco vein mottling virus protease cleavage site (TVMV)-His] were expressed in HEK293T cells and purified sequentially by recombinant Protein A affinity chromatography and size exclusion chromatography. Human PD-L2-His (Sino Biologicals), CD80-His (Sino Biologicals), CTLA4-Ig (RnD Systems) were all obtained through commercial sources.
Ranges are as follows: A=0.10-10 μM; B=0.01-0.099 μM; C=0.004-0.0099 μM.

[2] = oral formulation ENTOCORT EC, extensive first-pass metabolism; cited from earlier work

T1 sequence (Q9NZQ7 with tags, fused parts or gaps): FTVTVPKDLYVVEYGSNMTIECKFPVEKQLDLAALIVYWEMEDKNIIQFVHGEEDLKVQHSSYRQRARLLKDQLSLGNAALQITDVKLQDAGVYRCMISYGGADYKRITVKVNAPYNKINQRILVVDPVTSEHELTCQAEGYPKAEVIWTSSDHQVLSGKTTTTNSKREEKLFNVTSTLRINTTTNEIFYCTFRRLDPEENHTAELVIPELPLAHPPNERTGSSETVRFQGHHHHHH

IC50 ([1]; values given as range classes)	SMILES	further results
–	CCCC[C@H]1C(=O)N(C)[C@@H](CCCC)C(=O)N[C@@H](CCCNC(=N)N)C(=O)NC(C(=O)NCC(N)=O)CSCC(=O)N[C@@H](Cc2ccc(O)cc2)C(=O)N(C)[C@@H](C)C(=O)N[C@@H](CC(N)=O)C(=O)N2CCC[C@H]2C(=O)N[C@@H](Cc2cnc[nH]2)C(=O)N[C@@H](CC(C)C)C(=O)NC2(C[C@@H]2C)C(=O)N[C@@H](Cc2c[nH]c3ccccc23)C(=O)N[C@@H](CO)C(=O)N[C@@H](Cc2csc3ccccc23)C(=O)N1C (stereo partly shown) [Example 10005] ({CH2CO}-Y[NMeA]NPHL[X3]WS[Bta][NMeNle][NMeNle]R[ξC]G-NH2; thioether N-14)	IC50 ([1]; numeric values): 1000 nM
100 to 10000 nM	CCCC[C@H]1C(=O)N(C)[C@@H](CCCC)C(=O)N[C@@H](CCCNC(=N)N)C(=O)NC(C(=O)NCC(N)=O)CSCC(=O)N[C@@H](Cc2ccc(O)cc2)C(=O)N(C)[C@@H](C)C(=O)N[C@@H](CC(N)=O)C(=O)N2C[C@H](O)C[C@H]2C(=O)N[C@@H](Cc2cnc[nH]2)C(=O)N[C@@H](CC(C)C)C(=O)NC2(C[C@@H]2C)C(=O)N[C@@H](Cc2c[nH]c3ccccc23)C(=O)N[C@@H](CO)C(=O)N[C@@H](Cc2csc3ccccc23)C(=O)N1C (stereo partly shown) [Example 10006] ({CH2CO}-Y[NMeA]N[Hyp]HL[X3]WS[Bta][NMeNle][NMeNle]R[ξC]G-NH2; thioether N-14)	–
100 to 10000 nM	CCCC[C@H]1C(=O)N(C)[C@@H](CCCC)C(=O)N[C@@H](CCCNC(=N)N)C(=O)NC(C(=O)NCC(N)=O)CSCC(=O)N[C@@H](Cc2ccc(O)cc2)C(=O)N(C)[C@@H](C)C(=O)N[C@@H](CC(N)=O)C(=O)N2C[C@H](O)C[C@H]2C(=O)N[C@@H](Cc2cnc[nH]2)C(=O)N[C@@H](CC(C)C)C(=O)NC2(C[C@@H]2C)C(=O)N[C@@H](Cc2c[nH]c3ccccc23)C(=O)N[C@@H](CO)C(=O)N[C@@H](Cc2c[nH]c3ccccc23)C(=O)N1C (stereo partly shown) [Example 10007]	–
10 to 99 nM	CCCC[C@H]1C(=O)N(C)[C@@H](CCCC)C(=O)N[C@@H](CCCNC(=N)N)C(=O)NC(C(=O)NCC(N)=O)CSCC(=O)N[C@@H](Cc2ccc(O)cc2)C(=O)N(C)[C@@H](C)C(=O)N[C@@H](CC(N)=O)C(=O)N[C@]2(C[C@@H]2CC)C(=O)N[C@@H](Cc2cnc[nH]2)C(=O)N[C@@H](CC(C)C)C(=O)N2C[C@H](O)C[C@H]2C(=O)N[C@@H](Cc2c[nH]c3ccccc23)C(=O)N[C@@H](CO)C(=O)N[C@@H](Cc2csc3ccccc23)C(=O)N1C (stereo partly shown) [Example 10008] ({CH2CO}-Y[NMeA]N[X2]HL[Hyp]WS[Bta][NMeNle][NMeNle]R[ξC]G-NH2; thioether N-14)	–
100 to 10000 nM	CCCC[C@H]1C(=O)N(C)[C@@H](CCCC)C(=O)N[C@@H](CCCNC(=N)N)C(=O)NC(C(=O)NCC(N)=O)CSCC(=O)N[C@@H](Cc2ccc(O)cc2)C(=O)N(C)[C@@H](C)C(=O)N[C@@H](CC(N)=O)C(=O)N[C@]2(C[C@@H]2CC)C(=O)N[C@@H](Cc2cnc[nH]2)C(=O)N[C@@H](CC(C)C)C(=O)N2C[C@H](O)C[C@H]2C(=O)N[C@@H](Cc2c[nH]c3ccccc23)C(=O)N[C@@H](CO)C(=O)N[C@@H](Cc2c[nH]c3ccccc23)C(=O)N1C (stereo partly shown) [Example 10009] ({CH2CO}-Y[NMeA]N[X2]HL[Hyp]WSW[NMeNle][NMeNle]R[ξC]G-NH2; thioether N-14)	–
100 to 10000 nM	CCCC[C@H]1C(=O)N(C)[C@@H](CCCC)C(=O)N[C@@H](CCCNC(=N)N)C(=O)NC(C(=O)NCC(N)=O)CSCC(=O)N[C@@H](Cc2ccc(O)cc2)C(=O)N(C)[C@@H](C)C(=O)N[C@@H](CC(N)=O)C(=O)N[C@]2(C[C@@H]2CC)C(=O)N[C@@H](Cc2cnc[nH]2)C(=O)N[C@@H](CC(C)C)C(=O)N2CCC[C@H]2C(=O)N[C@@H](Cc2c[nH]c3ccccc23)C(=O)N[C@@H](CO)C(=O)N[C@@H](Cc2c[nH]c3ccccc23)C(=O)N1C (stereo partly shown) [Example 10010] ({CH2CO}-Y[NMeA]N[X2]HLPWSW[NMeNle][NMeNle]R[ξC]G-NH2; thioether N-14)	–
–	CCCC1O[C@@H]2C[C@H]3[C@@H]4CCC5=CC(=O)C=C[C@]5(C)[C@H]4[C@@H](O)C[C@]3(C)[C@]2(C(=O)CO)O1 (stereo partly shown) [budesonide]	bioavailability [2]: about 10%
